According to patent US5798362A, “Quinazolinyl-amino derivatives having α-antagonist activity” (Recordati S.A. Chemical and Pharmaceutical Company, priority 1994, dated 1998):
Counter-ions that a name gives are not always drawn. Like-named read-outs stand apart in the source and are kept apart here.

Legend:
[1] = target: α1-receptors ([3H]prazosin); test: [3H]Prazosin binding (α1-receptors), rat cerebral cortices; details: rat cerebral cortex, 0.35 nM [3H]prazosin, 25° C., 30 min; read-out: [3H] prazosine IC50
Experimental: Rat cerebral cortices were homogenized in 50 volumes of original wet weight of ice-cold 50 mM Tris-HCl buffer pH 7.4. The homogenates were centrifuged at 48,000 × g for 10 minutes, and the pellets were resuspended in the same volume of ice-cold buffer, centrifuged and resuspended two more times. […] The incubations were terminated by rapid filtration through Whatman GF/B, filters using a Brandel cell harvester and the filters were washed with 3×3 ml of ice-cold buffer. The radioactivity retained on the filters was determined by liquid scintillation counting. Data analysis The inhibition of specific binding of the radioligands by the tested drugs was analyzed to estimate the IC50 value by using the non-linear curve-fitting program Allfit [A. De Lean et al., Am. J. Physiol.

cloned α1B adrenoceptor = target: T1, cloned α1B adrenoceptor (Mesocricetus auratus, UniProt P18841); test: biochemical; type: binding; details: syrian hamster α1B in COS-7 cells; mean of 2-4 experiments in triplicate, agreed within 10%
T1 sequence (P18841 1-515): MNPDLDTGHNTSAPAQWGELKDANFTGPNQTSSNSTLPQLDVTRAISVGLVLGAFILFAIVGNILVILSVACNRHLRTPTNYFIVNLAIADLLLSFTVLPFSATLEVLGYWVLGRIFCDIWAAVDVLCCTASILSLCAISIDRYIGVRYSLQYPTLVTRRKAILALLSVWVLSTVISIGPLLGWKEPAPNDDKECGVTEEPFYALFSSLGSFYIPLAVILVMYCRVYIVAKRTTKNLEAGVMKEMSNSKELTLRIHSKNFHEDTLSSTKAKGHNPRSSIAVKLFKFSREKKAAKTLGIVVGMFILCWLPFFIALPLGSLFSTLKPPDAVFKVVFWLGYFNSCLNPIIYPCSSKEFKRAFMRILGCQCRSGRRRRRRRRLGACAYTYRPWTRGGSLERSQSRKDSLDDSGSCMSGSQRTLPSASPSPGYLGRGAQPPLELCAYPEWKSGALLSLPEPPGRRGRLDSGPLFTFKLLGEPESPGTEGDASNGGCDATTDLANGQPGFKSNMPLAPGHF
Experimental: (§1) Cloned animal α1 adrenoceptors
(§2) COS-7 cells were grown as monolayers in Dulbecco's modified Eagle's medium (DMEM), supplemented with 25 mM glucose, 10% bovine calf serum, 100 units/ml penicillin and 100 μg/ml streptomicyn sulfate.
(§3) Transfected cells from colture flask were washed two times with 5 ml phosphate buffered saline (PBS), scraped into 2 ml of 5 mM Tris-HCl, pH 7.4, containing 5 mM EDTA and 10 μM leupeptin, and lysed by sonication. The cell lysates were pelleted at 30000xg for 15 min at 4° C. and washed three times with 10 ml ice-cold 50 mM Tris-HCl, pH 7.4. Membranes were resuspended in 50 mM Tris-HCl, pH 7.4, containing 10 μM pargyline and 0.1% ascorbic acid, quickly frozen and stored at -70° C. until utilized.
(§4) Radioligand binding assays
(§5) Non-specific binding was determined in presence of 100 μM phentolamine. […] The filters were then washed with 3×3 ml of ice-cold buffer and the radioactivity retained on the filters was counted in 10 ml of Filter Count (Packard) in a liquid scintillation spectrometer with a counting efficacy of 40%.
(§6) The inhibition of specific binding of the radioligands by the tested drugs was analyzed to estimate the IC50 value by using the non-linear curve-fitting program Allfit [A. De Lean et al., Am. […]

in vivo = details: mouse
Experimental: 20-30 g b.w., were obtained from Charles River, Italy. Animals were housed with free access to food and water and maintained on forced light-dark cycle at 22°-24° C. until the day of experiments.
The acute toxicity of synthesized compounds was evaluated in female Albino Swiss mice after intraperitoneal and oral administration. Four logarithmic scaled doses of the compounds were dissolved or suspended in 0.5% Methocel and administered in a volume of 10 ml/kg to groups of 4 mice/dose. Mortality was recorded 7 days after the administration.

cloned α1D adrenoceptor = target: T2, cloned α1D adrenoceptor (Rattus norvegicus, UniProt P23944); test: Radioligand binding, cloned α1D adrenoceptor (previously α1A/D) expressed in COS-7 cells; details: rat brain α1D in COS-7 cells; mean of 2-4 experiments in triplicate, agreed within 10%
T2 construct: expressed in transfected cells; host or cells: COS-7 (transient)
T2 sequence (P23944 1-561): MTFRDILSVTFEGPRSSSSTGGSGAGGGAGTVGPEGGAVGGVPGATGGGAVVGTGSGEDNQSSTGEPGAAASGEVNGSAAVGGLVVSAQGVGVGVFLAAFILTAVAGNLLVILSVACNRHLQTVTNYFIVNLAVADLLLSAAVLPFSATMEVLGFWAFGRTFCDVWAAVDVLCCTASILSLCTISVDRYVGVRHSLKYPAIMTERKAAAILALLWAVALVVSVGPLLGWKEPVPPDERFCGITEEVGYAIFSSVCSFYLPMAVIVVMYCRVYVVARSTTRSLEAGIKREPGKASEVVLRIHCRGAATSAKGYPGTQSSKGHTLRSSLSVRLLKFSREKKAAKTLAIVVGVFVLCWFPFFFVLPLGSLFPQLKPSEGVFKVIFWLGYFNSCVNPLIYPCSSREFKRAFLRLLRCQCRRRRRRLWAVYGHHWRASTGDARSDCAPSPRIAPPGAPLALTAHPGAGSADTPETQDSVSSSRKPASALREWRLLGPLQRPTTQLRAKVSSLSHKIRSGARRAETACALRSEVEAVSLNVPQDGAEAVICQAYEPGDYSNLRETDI
Experimental: as §1, §2, §3, §4, §5, §6

cloned α1A adrenoceptor = target: T3, cloned α1A adrenoceptor (Bos taurus, UniProt P18130); test: Radioligand binding, cloned α1A adrenoceptor (previously α1C) expressed in COS-7 cells; details: bovine brain α1A in COS-7 cells; mean of 2-4 experiments in triplicate, agreed within 10%
T3 construct: expressed in transfected cells; host or cells: COS-7 (transient)
T3 sequence (P18130 1-466): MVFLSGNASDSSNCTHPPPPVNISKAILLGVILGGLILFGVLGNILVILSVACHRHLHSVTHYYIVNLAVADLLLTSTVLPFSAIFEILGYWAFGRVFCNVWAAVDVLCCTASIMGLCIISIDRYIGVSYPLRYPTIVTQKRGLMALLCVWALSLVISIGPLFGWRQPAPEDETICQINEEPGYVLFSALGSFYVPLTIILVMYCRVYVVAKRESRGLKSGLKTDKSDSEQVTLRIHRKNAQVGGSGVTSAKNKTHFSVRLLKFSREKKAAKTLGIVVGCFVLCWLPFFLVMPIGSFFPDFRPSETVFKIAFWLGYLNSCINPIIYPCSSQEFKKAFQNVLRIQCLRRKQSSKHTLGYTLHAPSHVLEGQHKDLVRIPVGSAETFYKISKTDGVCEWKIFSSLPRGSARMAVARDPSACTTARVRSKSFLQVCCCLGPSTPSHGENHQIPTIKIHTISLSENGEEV
Experimental: as §1, §2, §3, §4
Non-specific binding was determined in presence of 100 μM phentolamine. The reaction mixture was incubated for 30 min at 25° C. and then stopped by the addition of ice cold Tris-HCl buffer and rapid filtration through 0.2% polyethyleneimine pretreated Whatman GF/B fiber filters using Brandel cell harvester. The filters were then washed with 3×3 ml of ice-cold buffer and the radioactivity retained on the filters was counted in 10 ml of Filter Count (Packard) in a liquid scintillation spectrometer with a counting efficacy of 40%.
The inhibition of specific binding of the radioligands by the tested drugs was analyzed to estimate the IC50 value by using the non-linear curve-fitting program Allfit [A. De Lean et al., Am. J. Physiol.

[2] = system: dyastolic arterious pressure; test: Antihypertensive activity in catheterized awake spontaneously hypertensive rat (SHR); type: in vivo; details: oral administration, read-out: DE25 (dose which induces a lowering of 25% of the dyastolic arterious pressure)
Experimental: (§7) Male Sprague Dawley rats (Crl: CD' BR) of 175-300 g b.w., male spontaneously hypertensive rats, Okamoto strain, female Albino Swiss mice [Crl:CD-1 (ICR) BR] 20-30 g b.w., were obtained from Charles River, Italy. Animals were housed with free access to food and water and maintained on forced light-dark cycle at 22°-24° C. until the day of experiments.
(§8) Evaluation of the antihypertensive activity in chateterized spontaneously hypertensive rat (SH) chronic awake and of the hypotensive activity in the normotensed anesthethized rat
The SH rats are surgically prepared at least 24 hours before the test. The surgical operation was performed under neuroleptoanalgesia or barbituric anesthesia; the right carotid artery was exposed and a chateter suitable in dimensions and material was introducted in the vessel up to the aortic arch. […]
For endovenous administrations a second chateter similar to the one above described was introduced during the surgical operation into the left jugular vein and brought to the exterior as the arterious chateter. […] About 30' before administration the arterious pressure was monitored and the registration of the parameters was performed after administration at different times according to the test protocol. […]

[3] = system: dyastolic arterious pressure; test: Hypotensive activity in the normotensed anesthetized rat; type: in vivo; details: iv, endovenous administration, read-out: DE25 (dose which induces a lowering of 25% of the dyastolic arterious pressure)
Experimental: as §7, §8
Normotensed rats with were prepared surgically at the moment of the test, after anesthesia with pentobarbital. Suitable chateters were introduced in the left carotid artery and the right jugular vein. The arterious chateter end was connected to a pressure transductor which sends the signal to a polygraph preamplifier. About 30' before the administration the arterious pressure was monitored and the registration of the parameters was performed after the administration, at various time according to the test protocol.
For the endovenous administration the administered volum was 0.5-1 ml/Kg, while for the oral administration was 5 ml/Kg.
Evaluation of data: in so far as the espression of the results is concerned, the pressure data were reported as percentage of the variation in respect to the base values.

[4] = ip, mice, intraperitoneal, mortality 7 days after administration, read-out: DL50 i.p.
[5] = mice, oral, mortality 7 days after administration, read-out: DL50 p.o.

SMILES | IC50 [1] | IC50 (cloned α1B adrenoceptor) | LD50 at 168 h (in vivo; [4]) | LD50 at 168 h (in vivo; [5]) | IC50 (cloned α1D adrenoceptor) | IC50 (cloned α1A adrenoceptor) | LD50 at 168 h (in vivo; ip) | LD50 at 168 h (in vivo; po) | ED25 [2] | ED25 [3]
COc1ccc(CC2c3cc(OC)c(OC)cc3CCN2c2nc(N)c3cc(OC)c(OC)cc3n2)cc1OC (centres unmarked) [Example 33, 4-Amino-6,7-dimethoxy-2-[1-(3,4-dimethoxybenzyl)-6,7-dimethoxy-1,2,3,4-tetrahydroisoguinolin-2-yl]-quinazoline hydrochloride hydrate] | 287 nM | 206 nM | 884 mg/kg | > 3000 mg/kg | 1550 nM | 950 nM |  |  |  | 
COc1cc2nc(N3CCN(C(=O)C4CCCO4)CC3)nc(N)c2cc1OC (centres unmarked) [Terazosin, reference compound] |  |  |  |  | 106 nM | 66.6 nM |  |  |  | 
COc1cc2nc(N3CCN(C(=O)COc4c(OC)cccc4C(C)C)CC3)nc(N)c2cc1OC.Cl [Example 24, 4-Amino-6,7-dimethoxy-2-{4-[(2-methoxy-6-isopropylphenoxy)acetyl]-1-piperazinyl}-quinazoline hydrochloride] | 28 nM |  |  |  |  | 17.2 nM | 268 mg/kg | > 3000 mg/kg |  | 
COc1cc2nc(N3CCN(C(=O)CNC(=O)OCc4ccccc4)CC3)nc(N)c2cc1OC.Cl [Example 11, 4-Amino-6,7-dimethoxy-2-{4-[2-(benzyloxycarbonylamino)-acetyl]-1-piperazinyl}-quinazoline hydrochloride] | 61 nM |  | > 1000 mg/kg | > 3000 mg/kg |  |  |  |  |  | 
COc1cc2nc(N3CCN(C(=O)C(C)(C)Oc4ccccc4OC)CC3)nc(N)c2cc1OC.Cl [Example 22, 4-Amino-6,7-dimethoxy-2-{4-[2-(2-methoxyphenoxy)-2-methylpropionyl]-1-piperazinyl}-quinazoline hydrochloride] | 49 nM |  | 435 mg/kg | > 3000 mg/kg |  |  |  |  |  | 
COc1cc2nc(N3CCN(C(=O)CC(=O)c4ccccc4)CC3)nc(N)c2cc1OC [Example 13, 4-Amino-6,7-dimethoxy-2-[4-(2-benzoylacetyl)-1-piperazinyl]-quinazoline] | 7 nM |  | 142 mg/kg | > 3000 mg/kg |  |  |  |  | 2.42 mg/kg | 0.056 mg/kg
